Reference: ChEMBL document CHEMBL1201862, “PubChem BioAssay data set” (2004)
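Grown in 96-well plates, cells were treated for 48 hours with each compound at five concentrations. Insufficient inhibition: endpoint recorded as highest concentration tested. GI50: concentration for 50% inhibition of growth.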 Calls of active or inactive are those of the source. No stated cut-off is given here; in the data, active = GI50 up to about 1.1 µM and inactive = higher.

Key:
Assay in all cases: NCI anticancer screen, dose series, 48 h
OVCAR-4 = system: OVCAR-4
HOP-18 = system: HOP-18
DLD-1 = system: DLD-1
A498 = system: A498
SK-MEL-2 = system: SK-MEL-2
EKVX = system: EKVX
SN12C = system: SN12C
MCF7 = system: MCF7
SNB-78 = system: SNB-78
DMS-273 = system: DMS-273
SF-268 = system: SF-268
A549 = system: A549
OVCAR-5 = system: OVCAR-5
XF498 = system: XF498
UACC-62 = system: UACC-62
HCT-15 = system: HCT-15
CCRF-CEM = system: CCRF-CEM
CAKI-1 = system: CAKI-1
COLO 205 = system: COLO 205
SK-MEL-28 = system: SK-MEL-28
SNB-19 = system: SNB-19
OVCAR-3 = system: OVCAR-3
SK-OV-3 = system: SK-OV-3
SW-620 = system: SW-620
NCI-H226 = system: NCI-H226
NCI/ADR-RES = system: NCI/ADR-RES
HOP-92 = system: HOP-92
NCI-H460 = system: NCI-H460
M19-MEL = system: M19-MEL
K562 = system: K562
HT-29 = system: HT-29
MOLT-4 = system: MOLT-4
SNB-75 = system: SNB-75
HL-60 = system: HL-60
Malme-3M = system: Malme-3M
UO-31 = system: UO-31
SF-539 = system: SF-539
RXF 393 = system: RXF 393
SK-MEL-5 = system: SK-MEL-5
NCI-H23 = system: NCI-H23
UACC-257 = system: UACC-257
DMS-114 = system: DMS-114
IGROV-1 = system: IGROV-1
KM-20L2 = system: KM-20L2
U-251 = system: U-251
SF-295 = system: SF-295
HOP-62 = system: HOP-62
HCT-116 = system: HCT-116
LOX IMVI = system: LOX IMVI
HCC 2998 = system: HCC 2998
KM12 = system: KM12
RPMI-8226 = system: RPMI-8226
NCI-H522 = system: NCI-H522
OVCAR-8 = system: OVCAR-8
ACHN = system: ACHN
TK-10 = system: TK-10
LXFL 529 = system: LXFL 529
786-0 = system: 786-0
M14 = system: M14
SR = system: SR

For `Cc1c2c(cc3c1[nH]c1ccccc13)C=NCC2`, the GI50 (OVCAR-4) was 16.6 µM (inactive), the GI50 (HOP-18) was 9.62 µM (inactive) and the GI50 (DLD-1) was 4.2 µM (inactive). For the same compound, the GI50 (A498) was 10.5 µM (inactive), the GI50 (SK-MEL-2) was 10.1 µM (inactive) and the GI50 (EKVX) was 33 µM (inactive). For the same compound, the GI50 (SN12C) was 19 µM (inactive), the GI50 (MCF7) was 2.92 µM (inactive) and the GI50 (SNB-78) was 19.7 µM (inactive). The GI50 (DMS-273) was 12.6 µM (inactive), the GI50 (SF-268) was 16.8 µM (inactive) and the GI50 (A549) was 15.2 µM (inactive). For the same compound, the GI50 (OVCAR-5) was 22 µM (inactive), the GI50 (XF498) was 7.14 µM (inactive) and the GI50 (UACC-62) was 8.49 µM (inactive). For the same compound, the GI50 (HCT-15) was 13.1 µM, the GI50 (CCRF-CEM) was 7.48 µM (inactive) and the GI50 (CAKI-1) was 11.3 µM (inactive). The GI50 (COLO 205) was 7.13 µM (inactive), the GI50 (SK-MEL-28) was 7.36 µM (inactive) and the GI50 (SNB-19) was 18.2 µM (inactive). The GI50 (OVCAR-3) was 1.26 µM (inactive), the GI50 (SK-OV-3) was 46.8 µM (inactive) and the GI50 (SW-620) was 8.43 µM (inactive). The GI50 (NCI-H226) was 20.7 µM (inactive), the GI50 (NCI/ADR-RES) was 12.2 µM (inactive) and the GI50 (HOP-92) was 3.18 µM (inactive). For the same compound, the GI50 (NCI-H460) was 8.53 µM (inactive), the GI50 (M19-MEL) was 11.1 µM (inactive) and the GI50 (K562) was 6.17 µM (inactive). The GI50 (HT-29) was 14.2 µM (inactive), the GI50 (MOLT-4) was 7.69 µM (inactive) and the GI50 (SNB-75) was 10.6 µM (inactive). For the same compound, the GI50 (HL-60) was 5.78 µM (inactive), the GI50 (Malme-3M) was 6.61 µM (inactive) and the GI50 (UO-31) was 24 µM (inactive). The GI50 (SF-539) was 6.37 µM (inactive), the GI50 (RXF 393) was 6.89 µM (inactive) and the GI50 (SK-MEL-5) was 6.41 µM (inactive). For the same compound, the GI50 (NCI-H23) was 19.7 µM (inactive), the GI50 (UACC-257) was 7.83 µM (inactive) and the GI50 (DMS-114) was 6.9 µM (inactive). For the same compound, the GI50 (IGROV-1) was 16.2 µM (inactive), the GI50 (KM-20L2) was 9.51 µM (inactive) and the GI50 (U-251) was 13.4 µM (inactive). The GI50 (SF-295) was 11.2 µM (inactive), the GI50 (HOP-62) was 31.8 µM (inactive) and the GI50 (HCT-116) was 6.34 µM (inactive). For the same compound, the GI50 (LOX IMVI) was 8.09 µM (inactive), the GI50 (HCC 2998) was 21.5 µM (inactive) and the GI50 (KM12) was 8.65 µM (inactive). For the same compound, the GI50 (RPMI-8226) was 10.5 µM (inactive), the GI50 (NCI-H522) was 12.9 µM (inactive) and the GI50 (OVCAR-8) was 10.2 µM (inactive).
For `Cc1ccc(S(=O)(=O)C(C#N)c2nc3ccccc3nc2-n2cccn2)cc1` (configuration not stated), the GI50 (OVCAR-4) was > 100 µM (inactive), the GI50 (HOP-18) was 86.9 µM (inactive) and the GI50 (DLD-1) was > 100 µM (inactive). The GI50 (SK-MEL-2) was > 100 µM (inactive), the GI50 (EKVX) was > 100 µM (inactive) and the GI50 (SN12C) was > 100 µM (inactive). The GI50 (SNB-78) was > 100 µM (inactive), the GI50 (DMS-273) was > 100 µM (inactive) and the GI50 (SF-268) was > 100 µM (inactive). The GI50 (A549) was > 100 µM (inactive), the GI50 (OVCAR-5) was > 100 µM (inactive) and the GI50 (XF498) was > 100 µM (inactive). The GI50 (HCT-15) was over 100 µM, the GI50 (CCRF-CEM) was > 100 µM (inactive) and the GI50 (ACHN) was > 100 µM (inactive). For the same compound, the GI50 (COLO 205) was > 100 µM (inactive), the GI50 (SK-MEL-28) was > 100 µM (inactive) and the GI50 (SNB-19) was > 100 µM (inactive). For the same compound, the GI50 (OVCAR-3) was > 100 µM (inactive), the GI50 (SK-OV-3) was > 100 µM (inactive) and the GI50 (NCI-H226) was > 100 µM (inactive). The GI50 (HOP-92) was > 100 µM (inactive), the GI50 (TK-10) was > 100 µM (inactive) and the GI50 (NCI-H460) was > 100 µM (inactive). For the same compound, the GI50 (M19-MEL) was > 100 µM (inactive), the GI50 (K562) was > 100 µM (inactive) and the GI50 (HT-29) was > 100 µM (inactive). For the same compound, the GI50 (MOLT-4) was > 100 µM (inactive), the GI50 (SNB-75) was > 100 µM (inactive) and the GI50 (HL-60) was > 100 µM (inactive). The GI50 (Malme-3M) was > 100 µM (inactive), the GI50 (UO-31) was > 100 µM (inactive) and the GI50 (LXFL 529) was > 100 µM (inactive). For the same compound, the GI50 (786-0) was > 100 µM (inactive), the GI50 (SF-539) was > 100 µM (inactive) and the GI50 (NCI-H23) was > 100 µM (inactive). The GI50 (UACC-257) was > 100 µM (inactive), the GI50 (DMS-114) was > 100 µM (inactive) and the GI50 (IGROV-1) was > 100 µM (inactive). The GI50 (U-251) was > 100 µM (inactive), the GI50 (SF-295) was > 100 µM (inactive) and the GI50 (M14) was > 100 µM (inactive). The GI50 (HCT-116) was > 100 µM (inactive), the GI50 (HCC 2998) was > 100 µM (inactive) and the GI50 (KM12) was > 100 µM (inactive). For the same compound, the GI50 (RPMI-8226) was > 100 µM (inactive) and the GI50 (OVCAR-8) was > 100 µM (inactive).
For `CN(CCO)c1nc(=O)c2c(n1C1OC(CO)C(O)C(O)C1O)CCCC2` (configuration not stated), the GI50 (HOP-18) was > 100 µM (inactive), the GI50 (DLD-1) was > 100 µM (inactive) and the GI50 (SK-MEL-2) was > 100 µM (inactive). The GI50 (EKVX) was > 100 µM (inactive), the GI50 (SN12C) was > 100 µM (inactive) and the GI50 (SNB-78) was > 100 µM (inactive). The GI50 (DMS-273) was > 100 µM (inactive), the GI50 (SF-268) was > 100 µM (inactive) and the GI50 (A549) was > 100 µM (inactive). The GI50 (OVCAR-5) was > 100 µM (inactive), the GI50 (XF498) was > 100 µM (inactive) and the GI50 (UACC-62) was > 100 µM (inactive). The GI50 (HCT-15) was over 100 µM, the GI50 (CCRF-CEM) was > 100 µM (inactive) and the GI50 (CAKI-1) was > 100 µM (inactive). The GI50 (ACHN) was > 100 µM (inactive), the GI50 (COLO 205) was > 100 µM (inactive) and the GI50 (SK-MEL-28) was > 100 µM (inactive). For the same compound, the GI50 (SNB-19) was > 100 µM (inactive), the GI50 (OVCAR-3) was > 100 µM (inactive) and the GI50 (SK-OV-3) was > 100 µM (inactive). For the same compound, the GI50 (SW-620) was > 100 µM (inactive), the GI50 (NCI-H226) was > 100 µM (inactive) and the GI50 (HOP-92) was > 100 µM (inactive). For the same compound, the GI50 (TK-10) was > 100 µM (inactive), the GI50 (NCI-H460) was > 100 µM (inactive) and the GI50 (M19-MEL) was > 100 µM (inactive). For the same compound, the GI50 (K562) was > 100 µM (inactive), the GI50 (HT-29) was > 100 µM (inactive) and the GI50 (MOLT-4) was > 100 µM (inactive). The GI50 (SNB-75) was 62.5 µM (inactive), the GI50 (HL-60) was > 100 µM (inactive) and the GI50 (Malme-3M) was > 100 µM (inactive). The GI50 (SR) was > 100 µM (inactive), the GI50 (UO-31) was > 100 µM (inactive) and the GI50 (LXFL 529) was > 100 µM (inactive). For the same compound, the GI50 (786-0) was > 100 µM (inactive), the GI50 (SF-539) was > 100 µM (inactive) and the GI50 (RXF 393) was > 100 µM (inactive). For the same compound, the GI50 (SK-MEL-5) was > 100 µM (inactive), the GI50 (NCI-H23) was > 100 µM (inactive) and the GI50 (UACC-257) was > 100 µM (inactive). For the same compound, the GI50 (DMS-114) was > 100 µM (inactive), the GI50 (IGROV-1) was > 100 µM (inactive) and the GI50 (KM-20L2) was > 100 µM (inactive). For the same compound, the GI50 (U-251) was > 100 µM (inactive), the GI50 (SF-295) was > 100 µM (inactive) and the GI50 (M14) was > 100 µM (inactive). For the same compound, the GI50 (HOP-62) was > 100 µM (inactive), the GI50 (HCT-116) was > 100 µM (inactive) and the GI50 (LOX IMVI) was > 100 µM (inactive). The GI50 (HCC 2998) was > 100 µM (inactive), the GI50 (KM12) was > 100 µM (inactive) and the GI50 (RPMI-8226) was > 100 µM (inactive). The GI50 (NCI-H522) was > 100 µM (inactive) and the GI50 (OVCAR-8) was > 100 µM (inactive).
